Values of other authors in US20050255049A1, “Formoterol and mometasone aerosol formulations” (priority 2002, published 2005).

Settings: stated in the background

C[C@@H]1C[C@H]2[C@@H]3CCC4=CC(=O)C=C[C@]4(C)[C@@]3(Cl)[C@@H](O)C[C@]2(C)[C@@]1(OC(=O)c1ccco1)C(=O)CCl [mometasone furoate, (11 beta, 16alpha)-9,21-dichloro-17-[(2-furanylcarbonyl)oxy]-11-hydroxy-16-methylpregna-1,4-diene-3,20-dione]
density: 1.4 g cm^−3
